# Experimental data reported in BindingDB's records for patent US12303509 (Pfizer, 2025).
# Biological target: Serine/threonine-protein kinase B-raf [V600E] (Homo sapiens, UniProt P15056, V600E)
# Test: BRAF V600E Enzyme Assay
# Protocol: A competitive displacement assay was configured for B-Raf that monitors the amount of a fluorescently-tagged “tracer” bound to B-Raf via TR-FRET from an anti-tag Eu-labeled antibody also bound to B-Raf. For full-length FLAG-tagged B-Raf(V600E), the assay mixtures consisted of 25 mM K+HEPES, pH 7.4, 10 mM MgCl2, 0.01% Triton X-100, 1 mM DTT, 2% DMSO (from compound), 50 nM Tracer 1710 (ThermoFisher, PR9176A), 0.5 nM Eu anti-FLAG (M2)-cryptate Ab (Cisbio, 61FG2KLB) and 5 nM full-length, N-terminally FLAG-tagged B-Raf(V600E) (Origene Technologies, TP700031. Compounds were typically diluted in DMSO across an 11-point dosing range created using a 3-fold serial dilution protocol at a top dose of 10 μM. The assay was run in 384-well, polystyrene, low-volume, non-treated, white microtiter plates (Costar 4512) in a final volume of 12 μL. Low control wells included 1 μM of a potent B-Raf inhibitor as a control. The assays were incubated at ambient temperature (typically 22° C.) for 60 min and then read on a PerkinElmer EnVision microplate reader using standard TRF settings (λEx=320 nm, λEm=615 & 665 nm).
# Sequence of Serine/threonine-protein kinase B-raf [V600E] (P15056 2-766 V600E limits assumed): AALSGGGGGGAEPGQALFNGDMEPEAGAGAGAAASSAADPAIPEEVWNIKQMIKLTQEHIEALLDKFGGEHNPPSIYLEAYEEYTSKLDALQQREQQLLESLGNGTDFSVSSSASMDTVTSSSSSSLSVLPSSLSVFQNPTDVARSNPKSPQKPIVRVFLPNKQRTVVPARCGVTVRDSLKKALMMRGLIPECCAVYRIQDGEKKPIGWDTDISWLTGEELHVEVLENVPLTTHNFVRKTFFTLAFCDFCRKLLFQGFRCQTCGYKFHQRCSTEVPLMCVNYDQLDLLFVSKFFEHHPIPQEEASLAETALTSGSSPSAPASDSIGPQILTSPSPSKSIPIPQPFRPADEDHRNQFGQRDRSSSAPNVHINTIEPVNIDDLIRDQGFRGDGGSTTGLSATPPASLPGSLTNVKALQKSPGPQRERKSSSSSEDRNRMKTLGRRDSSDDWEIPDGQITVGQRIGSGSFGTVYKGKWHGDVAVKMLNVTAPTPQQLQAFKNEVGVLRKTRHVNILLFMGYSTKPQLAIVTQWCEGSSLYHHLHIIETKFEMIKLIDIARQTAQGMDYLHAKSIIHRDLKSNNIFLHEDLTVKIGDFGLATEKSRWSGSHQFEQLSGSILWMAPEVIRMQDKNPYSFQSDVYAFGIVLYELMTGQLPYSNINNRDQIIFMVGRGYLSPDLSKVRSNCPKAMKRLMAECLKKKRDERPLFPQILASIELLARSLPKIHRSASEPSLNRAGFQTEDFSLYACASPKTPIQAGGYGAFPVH
row,Compound,IC50 [nM]
1,"Cn1cnc2ccc(Nc3c(F)ccc(NS(=O)(=O)N4CC(OC(F)F)C4)c3Cl)c(Cl)c2c1=O [US12303509, Example 143]",8
2,"Cc1c(Nc2c(F)ccc(NS(=O)(=O)N3CC(C)(F)C3)c2Cl)ccc2ncn(C)c(=O)c12 [US12303509, Example 155]",7
3,"Cc1c(Nc2c(F)ccc(NS(=O)(=O)N3CC4(CCC4)C3)c2Cl)ccc2ncn(C)c(=O)c12 [US12303509, Example 157]",29
